Source: patent US10004701B2, “Methods and compositions for treating infection” (UNIVERSITY OF ROCHESTER, priority 2012, dated 2018)
Where a name gives a salt, the structure may show the parent alone. Read-outs that look alike come from different tables or passages of the source.

Legend:
Assay in all cases: AK assay 384-well format, Prestwick library screening
[1] = test system: A. baumannii strain 98-37-09; format: cell-based, Acinetobacter baumannii; details: 50 μM final drug concentration; for fold induction at 50 µM: Acinetobacter baumannii, 983709, 3 h
[2] = test system: S. aureus strain USA300-0114; format: cell-based, Staphylococcus aureus; details: 50 μM final drug concentration; for fold induction at 50 µM: Staphylococcus aureus, USA300, 3 h
K. pneumoniae = format: cell-based, Klebsiella pneumoniae; details: 50 μM final drug concentration; for fold induction at 50 µM: Klebsiella pneumoniae, 3 h
E. coli = format: cell-based, Escherichia coli; details: 50 μM final drug concentration; for fold induction at 50 µM: Escherichia coli, 3 h
E. faecium = format: cell-based, Enterococcus faecium; details: 50 μM final drug concentration; for fold induction at 50 µM: Enterococcus faecium, 3 h
E. cloacae = format: cell-based, Enterobacter cloacae; details: 50 μM final drug concentration; for fold induction at 50 µM: Enterobacter cloacae, 3 h
P. aeruginosa = format: cell-based, Pseudomonas aeruginosa; details: 50 μM final drug concentration; for fold induction at 50 µM: Pseudomonas aeruginosa, 3 h
[3] = planktonic A. baumannii, 384-well, cutoff for positive-scoring molecules 3-fold increase, read-out: AK-based Prestwick Library Screening Results: A. baumannii (increase in extracellular AK activity)
[4] = planktonic S. aureus, 384-well, cutoff for positive-scoring molecules 3-fold increase, read-out: AK-based Prestwick Library Screening Results: S. aureus (increase in extracellular AK activity)
[5] = planktonic K. pneumoniae, 384-well, cutoff for positive-scoring molecules 3-fold increase, read-out: AK-based Prestwick Library Screening Results: K. pneumoniae (increase in extracellular AK activity)
[6] = planktonic E. faecium, 384-well, cutoff for positive-scoring molecules 3-fold increase, read-out: AK-based Prestwick Library Screening Results: E. faecium (increase in extracellular AK activity)
[7] = planktonic E. cloacae, 384-well, cutoff for positive-scoring molecules 3-fold increase, read-out: AK-based Prestwick Library Screening Results: E. cloacae (increase in extracellular AK activity)
[8] = planktonic P. aeruginosa, 384-well, cutoff for positive-scoring molecules 3-fold increase, read-out: AK-based Prestwick Library Screening Results: P. aeruginosa (increase in extracellular AK activity)
[9] = planktonic E. coli, 384-well, cutoff for positive-scoring molecules 3-fold increase, read-out: AK-based Prestwick Library Screening Results: E. coli (increase in extracellular AK activity)
[10] = cutoff for positive-scoring molecules 3-fold increase, read-out: AK-based Prestwick Library Screening Results, A. baumannii (fold increase in extracellular AK activity)
[11] = cutoff for positive-scoring molecules 3-fold increase, read-out: AK-based Prestwick Library Screening Results, S. aureus (fold increase in extracellular AK activity)
[12] = cutoff for positive-scoring molecules 3-fold increase, read-out: AK-based Prestwick Library Screening Results, K. pneumoniae (fold increase in extracellular AK activity)
[13] = cutoff for positive-scoring molecules 3-fold increase, read-out: AK-based Prestwick Library Screening Results, E. coli (fold increase in extracellular AK activity)
[14] = cutoff for positive-scoring molecules 3-fold increase, read-out: AK-based Prestwick Library Screening Results, E. faecium (fold increase in extracellular AK activity)
[15] = cutoff for positive-scoring molecules 3-fold increase, read-out: AK-based Prestwick Library Screening Results, E. cloacae (fold increase in extracellular AK activity)
[16] = cutoff for positive-scoring molecules 3-fold increase, read-out: AK-based Prestwick Library Screening Results, P. aeruginosa (fold increase in extracellular AK activity)

CN(Cc1cnc2nc(N)nc(N)c2n1)c1ccc(C(=O)N[C@@H](CCC(=O)O)C(=O)O)cc1 [Methotrexate]
fold induction at 50 µM [1, 3]: 1
fold induction at 50 µM [2, 4]: 0.9
fold induction at 50 µM (K. pneumoniae; [5]): 0.8
fold induction at 50 µM (E. coli; planktonic E. coli, 384-well, […], read-out: AK-based Prestwick Library Screening Results: E. coli (increase in extracellular AK activity)): 1.1
fold induction at 50 µM (E. faecium; [6]): 0.8
fold induction at 50 µM (E. cloacae; [7]): 1.3
fold induction at 50 µM (P. aeruginosa; [8]): 1

O=c1ccc2cc(O)c(O)cc2o1 [Esculetin]
fold induction at 50 µM ([1]; […], read-out: AK-based Prestwick Library Screening Results, A. baumannii (fold increase in extracellular AK activity)): 1.1
fold induction at 50 µM ([2]; […], read-out: AK-based Prestwick Library Screening Results, S. aureus (fold increase in extracellular AK activity)): 1.1
fold induction at 50 µM (K. pneumoniae; […], read-out: AK-based Prestwick Library Screening Results, K. pneumoniae (fold increase in extracellular AK activity)): 1.2
fold induction at 50 µM (E. coli; […], read-out: AK-based Prestwick Library Screening Results, E. coli (fold increase in extracellular AK activity)): 1.4
fold induction at 50 µM (E. faecium; […], read-out: AK-based Prestwick Library Screening Results, E. faecium (fold increase in extracellular AK activity)): 1
fold induction at 50 µM (E. cloacae; […], read-out: AK-based Prestwick Library Screening Results, E. cloacae (fold increase in extracellular AK activity)): 1.4
fold induction at 50 µM (P. aeruginosa; […], read-out: AK-based Prestwick Library Screening Results, P. aeruginosa (fold increase in extracellular AK activity)): 0.9

CC(COc1ccccc1)NC(C)C(O)c1ccc(O)cc1 (stereo not drawn) [Isoxsuprine hydrochloride]
fold induction at 50 µM [1, 3]: 1.5
fold induction at 50 µM [2, 4]: 1.1
fold induction at 50 µM (K. pneumoniae; [5]): 1
fold induction at 50 µM (E. coli; [9]): 1.1
fold induction at 50 µM (E. faecium; [6]): 1
fold induction at 50 µM (E. cloacae; [7]): 1.5
fold induction at 50 µM (P. aeruginosa; [8]): 1.1

CC[N+](CC)(CC)CCOc1cccc(OCC[N+](CC)(CC)CC)c1OCC[N+](CC)(CC)CC [Gallamine triethiodide]
fold induction at 50 µM [1, 3]: 1.2
fold induction at 50 µM [2, 4]: 1.1
fold induction at 50 µM (K. pneumoniae; [5]): 1.1
fold induction at 50 µM (E. coli; [9]): 1.3
fold induction at 50 µM (E. faecium; [6]): 1
fold induction at 50 µM (E. cloacae; [7]): 1.5
fold induction at 50 µM (P. aeruginosa; [8]): 1

CC(C)(C)NC[C@H](O)COc1ccccc1C1CCCC1 [Penbutolol sulfate]
fold induction at 50 µM [1, 10]: 0.4
fold induction at 50 µM [2, 11]: 0.4
fold induction at 50 µM (K. pneumoniae; [12]): 0.5
fold induction at 50 µM (E. coli; [13]): 0.5
fold induction at 50 µM (E. faecium; [14]): 0.8
fold induction at 50 µM (E. cloacae; [15]): 0.4
fold induction at 50 µM (P. aeruginosa; [16]): 0.5

C[C@@H]1[C@H](O)[C@@H](C)/C=C/C=C/CC/C=C/C=C/C=C/C=C/C(O[C@H]2O[C@H](C)[C@@H](O)[C@H](N)[C@@H]2O)CC2O[C@](O)(CC(O)C(O)CCC(O)CC(O)CC(O)CC(=O)O[C@H]1C)CC(O)C2C(=O)O (stereo partly drawn) [Nystatine]
AK-based Prestwick Library Screening Results, A. baumannii (increase in extracellular AK activity) ([1]; planktonic A. baumannii, […]): 0.9
AK-based Prestwick Library Screening Results, S. aureus (increase in extracellular AK activity) ([2]; planktonic S. aureus, […]): 0.7
AK-based Prestwick Library Screening Results, K. pneumoniae (increase in extracellular AK activity) (K. pneumoniae; planktonic K. pneumoniae, […]): 0.8
AK-based Prestwick Library Screening Results, E. coli (increase in extracellular AK activity) (E. coli; planktonic E. coli, […]): 1.0
AK-based Prestwick Library Screening Results, E. faecium (increase in extracellular AK activity) (E. faecium; planktonic E. faecium, […]): 0.8
AK-based Prestwick Library Screening Results, E. cloacae (increase in extracellular AK activity) (E. cloacae; planktonic E. cloacae, […]): 1.4
AK-based Prestwick Library Screening Results, P. aeruginosa (increase in extracellular AK activity) (P. aeruginosa; planktonic P. aeruginosa, […]): 0.8

NC[C@@H]1O[C@H](O[C@H]2[C@@H](O)[C@H](O[C@@H]3[C@@H](O)[C@H](N)C[C@H](N)[C@H]3O[C@H]3O[C@H](CN)[C@@H](O)[C@H](O)[C@H]3N)O[C@@H]2CO)[C@H](N)[C@@H](O)[C@@H]1O.O=S(=O)(O)O [Neomycin sulfate]
AK-based Prestwick Library Screening Results: A. baumannii (increase in extracellular AK activity) ([1]; planktonic A. baumannii, 384-well, cutoff for positive-scoring molecules 3-fold increase): 1.4
AK-based Prestwick Library Screening Results: S. aureus (increase in extracellular AK activity) ([2]; planktonic S. aureus, 384-well, cutoff for positive-scoring molecules 3-fold increase): 1.1
AK-based Prestwick Library Screening Results: K. pneumoniae (increase in extracellular AK activity) (K. pneumoniae; planktonic K. pneumoniae, 384-well, cutoff for positive-scoring molecules 3-fold increase): 1.0
AK-based Prestwick Library Screening Results: E. coli (increase in extracellular AK activity) (E. coli; planktonic E. coli, 384-well, cutoff for positive-scoring molecules 3-fold increase): 1.2
AK-based Prestwick Library Screening Results: E. faecium (increase in extracellular AK activity) (E. faecium; planktonic E. faecium, 384-well, cutoff for positive-scoring molecules 3-fold increase): 1.0
AK-based Prestwick Library Screening Results: E. cloacae (increase in extracellular AK activity) (E. cloacae; planktonic E. cloacae, 384-well, cutoff for positive-scoring molecules 3-fold increase): 1.3
AK-based Prestwick Library Screening Results: P. aeruginosa (increase in extracellular AK activity) (P. aeruginosa; planktonic P. aeruginosa, 384-well, cutoff for positive-scoring molecules 3-fold increase): 0.9

CC(=O)O[C@]1(C(C)=O)CC[C@H]2[C@@H]3C=C(C)C4=CC(=O)CC[C@]4(C)[C@H]3CC[C@@]21C [Megestrol acetate]
fold induction at 50 µM [1, 10]: 1.2
fold induction at 50 µM [2, 11]: 0.9
fold induction at 50 µM (K. pneumoniae; [12]): 1
fold induction at 50 µM (E. coli; [13]): 1.1
fold induction at 50 µM (E. faecium; [14]): 1.2
fold induction at 50 µM (E. cloacae; [15]): 1.6
fold induction at 50 µM (P. aeruginosa; [16]): 1.2

Guanadrel sulfate
AK-based Prestwick Library Screening Results, A. baumannii (fold increase in extracellular AK activity) ([1]; planktonic, […]): 1.0
AK-based Prestwick Library Screening Results, S. aureus (fold increase in extracellular AK activity) ([2]; planktonic, […]): 1.2
AK-based Prestwick Library Screening Results, K. pneumoniae (fold increase in extracellular AK activity) (K. pneumoniae; planktonic, […]): 0.7
AK-based Prestwick Library Screening Results, E. coli (fold increase in extracellular AK activity) (E. coli; planktonic, […]): 1.3
AK-based Prestwick Library Screening Results, E. faecium (fold increase in extracellular AK activity) (E. faecium; planktonic, […]): 1.0
AK-based Prestwick Library Screening Results, E. cloacae (fold increase in extracellular AK activity) (E. cloacae; planktonic, […]): 1.4
AK-based Prestwick Library Screening Results, P. aeruginosa (fold increase in extracellular AK activity) (P. aeruginosa; planktonic, […]): 1.1
